Test system: N27 rat dopaminergic neural cells
Experiment: MTT assay in N27 rat dopaminergic neural cells: inhibition of RSL3-induced cell death (ferroptosis)
Format: cell-based
Details: ferroptosis induced by 0.5 μM RSL3, 24 hours, viability by MTT
Protocol: MTT Assay in N27 Rat Dopaminergic Neural Cells
N27 rat dopaminergic neural cells (Millipore, SCC048) were cultured in RPMI-1640 media (Wisent, 350-000) supplemented with 1×GlutaMAX (Gibco, 35050-061), 10% FBS (embryonic stem cell qualified; Wisent, 920-040), and 1× Penicillin-Streptomycin (Wisent, 450-201). Cells were grown in humidified tissue culture incubator at 37° C. with 5% CO2, for up to 10 passages. To evaluate the ability of test compounds to inhibit RSL3-induced cell death, N27 cells were seeded in clear 96-well tissue culture plates (Sarstedt, 83.3924) at a density of 15,000 cells/well. On the next day, the medium was changed to fresh complete RPMI-1640. Eight-point dilution series of test compounds were added to the cells. Then, ferroptosis was induced by addition of 0.5 μM RSL3 (vehicle-treated cells served as control). Ferrostatin-1 (Fer-1) was included in each assay as control inhibitor of ferroptosis. Plates were incubated for 24 hours at 37° C. in a tissue culture incubator, then cell viability was determined by MTT assay. Briefly, Thiazolyl Blue Tetrazolium Bromide [3-(4,5-dimethylthiazol-2-yl)-2,5-diphenyltetrazolium bromide or “MTT” ] (Sigma) stock solution (5 mg/mL in PBS, sterilized by filtration) was diluted 1:1 with complete growth medium, and added on the cells to a final concentration of 0.5 mg/mL. Cells were incubated with MTT for 4 hours at 37° C., protected from light, in a humidified, 5% CO2 atmosphere. Medium was then completely removed from the wells by gentle aspiration and converted MTT formazan crystals were dissolved in 150 μL of DMSO. Absorbance of converted dye was measured at 595 nm with background subtraction at 690 nm using the BioTek Cytation5 Microplate Reader. Blank reading (absorbance from wells containing media and vehicle only, no cells) was removed from all sample wells. Viability was calculated as a percentage of control cells (vehicle-treated cells were set as 100% viability). Dose-response curves were drawn and IC50 values were calculated using GraphPad Prism software, version 7.

SMILES: COCCOc1nc2c(c(NC3CCCC3)n1)NCCC2 [Compound B-495, N-cyclopentyl-2-(2-methoxyethoxy)-5,6,7,8-tetrahydropyrido[3,2-d]pyrimidin-4-amine]
- IC50 (Rattus norvegicus, N27, 24 h): 160 nM

SMILES: CCOC(=O)c1cc2c(c(NC3CCCC3)c1)NC(C)(C)CC2 [Compound B-273, Ethyl 8-cyclopentylamino-2,2-dimethyl-3,4-dihydro-1H-quinoline-6-carboxylate]
- IC50 (Rattus norvegicus, N27, 24 h): 1040 nM

SMILES: CCCC(=O)c1ccc(NC2CC(F)(F)C2)c(NC2CC(F)(F)C2)n1 [Compound P-47, 1-[5,6-bis[(3,3-difluorocyclobutyl)amino]-2-pyridyl]butan-1-one]
- IC50 (Rattus norvegicus, N27, 24 h): 201 nM

SMILES: c1cc(-c2nc3c(c(NC4CCCC4)n2)NCCC3)ccn1 [Compound A-34, N-cyclopentyl-2-(4-pyridyl)-5,6,7,8-tetrahydropyrido[3,2-d]pyrimidin-4-amine]
- IC50 (Rattus norvegicus, N27, 24 h): 57 nM

SMILES: CCCCNc1nc2c(c(NC3CCCC3)n1)NCCC2 [Compound B-433, N2-Butyl-N4-cyclopentyl-5,6,7,8-tetrahydropyrido[3,2-d]pyrimidine-2,4-diamine]
- IC50 (Rattus norvegicus, N27, 24 h): 726 nM

SMILES: CC1(Nc2nc(-c3ccc(F)cc3)ccc2NC2CCOC2)CCOC1 (stereo not shown) [Compound M-23, 6-(4-fluorophenyl)-N^2-(3-methyltetrahydrofuran-3-yl)-N^3-tetrahydrofuran-3-yl-pyridine-2,3-diamine]
- IC50 (Rattus norvegicus, N27, 24 h): 3 to 6 nM

SMILES: CCC/C=C/c1nc(NC2CCCC2)c2c(n1)OCCN2 [Compound B-710, N-cyclopentyl-2-[(E)-pent-1-enyl]-6,7-dihydro-5H-pyrimido[4,5-b][1,4]oxazin-4-amine]
- IC50 (Rattus norvegicus, N27, 24 h): 22 nM

SMILES: CCOC(=O)c1cc2c(c(C(=O)C(F)(F)F)c1)NC(C)(C)C=C2 [Compound B-101, Ethyl 2,2-dimethyl-8-(2,2,2-trifluoroacetyl)-1,2-dihydroquinoline-6-carboxylate]
- IC50 (Rattus norvegicus, N27, 24 h): > 3000 nM

SMILES: CCCCC(=O)c1nc(NC2CCCC2)c2c(n1)OCCN2 [Compound B-763, 1-[4-(cyclopentylamino)-5H,6H,7H-pyrimido[4,5-b][1,4]oxazin-2-yl]pentan-1-one]
- IC50 (Rattus norvegicus, N27, 24 h): 391 nM

SMILES: CC1(Nc2nc(-c3ccc(F)cc3)nc3c2NCCC3)CCOC1 (stereo not shown) [Compound M-14, 2-(4-fluorophenyl)-N-(3-methyltetrahydrofuran-3-yl)-5,6,7,8-tetrahydropyrido[3,2-d]pyrimidin-4-amine]
- IC50 (Rattus norvegicus, N27, 24 h): 29 nM

SMILES: Cc1ccc(-c2nc3c(c(NC4CCCC4)n2)NCCC3)cc1 [Compound A-32, N-cyclopentyl-2-(p-tolyl)-5,6,7,8-tetrahydropyrido[3,2-d]pyrimidin-4-amine]
- IC50 (Rattus norvegicus, N27, 24 h): 6 nM

SMILES: CCC/C=C/c1nc2c(c(NC3CCCC3)n1)NCCC2 [Compound B-388, N-cyclopentyl-2-[(E)-pent-1-enyl]-5,6,7,8-tetrahydropyrido [3,2-d]pyrimidin-4-amine]
- IC50 (Rattus norvegicus, N27, 24 h): 40 nM

SMILES: CCCCCc1nc2c(c(NC3CCCC3)n1)NCCC2 [Compound A-63, N-cyclopentyl-2-pentyl-5,6,7,8-tetrahydropyrido[3,2-d]pyrimidin-4-amine]
- IC50: 313 nM

SMILES: CCCCC(=O)c1nc2c(c(NC3CCCC3)n1)NCCC2 [Compound C-82, 1-[4-(cyclopentylamino)-5,6,7,8-tetrahydropyrido[3,2-d]pyrimidin-2-yl]pentan-1-one]
- IC50 (Rattus norvegicus, N27, 24 h): 84 nM

SMILES: CCCCCc1cc2c(c(Nc3ccccn3)c1)NCCC2 [Compound B-308]
- IC50 (Rattus norvegicus, N27, 24 h): 18 nM

SMILES: CCCCC(=O)c1nc2c(c(NC(C)(C)C)n1)NCCC2 [Compound A-06, 1-[4-(tert-butylamino)-5,6,7,8-tetrahydropyrido[3,2-d]pyrimidin-2-yl]pentan-1-one]
- IC50 (Rattus norvegicus, N27, 24 h): 76 nM

SMILES: CCC(C)Nc1ccc(-c2cncnc2)nc1NC1CCCC1 (stereo not shown) [Compound H-80, N^2-cyclopentyl-6-pyrimidin-5-yl-N^3-sec-butyl-pyridine-2,3-diamine]
- IC50 (Rattus norvegicus, N27, 24 h): 7 nM

SMILES: CCC(C)Nc1ccc(-c2ccc(C)cc2)nc1NC(C)(C)C [Compound L-02, N^2-tert-butyl-6-(p-tolyl)-N^3-sec-butyl-pyridine-2,3-diamine]
- IC50 (Rattus norvegicus, N27, 24 h): 5 nM

SMILES: CC1=Nc2cc(C#N)ccc2NC1(C)C [Compound Q-912, 2,2,3-trimethyl-1H-quinoxaline-6-carbonitrile]
- IC50 (Rattus norvegicus, N27, 24 h): > 3000 nM

SMILES: CCCCC(=O)c1cc2c(c(Nc3ccccn3)c1)NCCC2 [Compound B-249, 1-{8-[(pyridin-2-yl)amino]-1,2,3,4-tetrahydroquinolin-6-yl}pentan-1-one]
- IC50 (Rattus norvegicus, N27, 24 h): 343 nM

SMILES: O=C(c1ccccc1)c1nc2c(c(NC3CCCC3)n1)NCCC2 [Compound A-16, [4-(cyclopentylamino)-5,6,7,8-tetrahydropyrido[3,2-d]pyrimidin-2-yl]-phenyl-methanone]
- IC50 (Rattus norvegicus, N27, 24 h): 285 nM

SMILES: c1ncc(-c2ncc(NC3COC3)c(NC3CCCC3)n2)cn1 [Compound F-82, N^4-cyclopentyl-N^5-(oxetan-3-yl)-2-pyrimidin-5-yl-pyrimidine-4,5-diamine]
- IC50 (Rattus norvegicus, N27, 24 h): > 625 nM

SMILES: Cc1ccc(-c2ccc(NC3COC3)c(NC3CCCC3)n2)cc1 [Compound H-81, N^2-cyclopentyl-N^3-(oxetan-3-yl)-6-(p-tolyl)pyridine-2,3-diamine]
- IC50 (Rattus norvegicus, N27, 24 h): 5 nM

SMILES: CN(C)C(=O)c1ccc(-c2ccc(NC3CCC3)c(NC3(C)CCOC3)n2)cc1 (stereo not shown) [Compound P-53, 4-[5-(cyclobutylamino)-6-[(3-methyltetrahydrofuran-3-yl)amino]-2-pyridyl]-N,N-dimethyl-benzamide]
- IC50 (Rattus norvegicus, N27, 24 h): 24 nM

SMILES: CCCCC(=O)c1cc2c(c(NC3CCOC3)c1)NCCC2 (stereo not shown) [Compound Q-879, 1-[8-(tetrahydrofuran-3-ylamino)-1,2,3,4-tetrahydroquinolin-6-yl]pentan-1-one]
- IC50 (Rattus norvegicus, N27, 24 h): 16.8 nM

SMILES: CCCCC(=O)c1cc2c(c(-c3ccncc3)c1)NCCC2 [Compound Q-950, 1-[8-(4-pyridyl)-1,2,3,4-tetrahydroquinolin-6-yl]pentan-1-one]
- IC50 (Rattus norvegicus, N27, 24 h): > 3000 nM

SMILES: CCCCN(C)c1nc2c(c(NC3CCCC3)n1)NCCC2 [Compound B-434, N2-Butyl-N4-cyclopentyl-N2-methyl-5,6,7,8-tetrahydropyrido[3,2-d]pyrimidine-2,4-diamine]
- IC50 (Rattus norvegicus, N27, 24 h): 397 nM

SMILES: CCCCC(=O)c1cc(N)c2c(c1)CCCN2Cc1ccccc1 [Compound B-133]
- IC50 (Rattus norvegicus, N27, 24 h): 2900 nM

SMILES: CCCCOc1nc2c(c(NC3CCCC3)n1)NCCC2 [Compound B-323, 2-Butoxy-N-cyclopentyl-5,6,7,8-tetrahydropyrido[3,2-d]pyrimidin-4-amine]
- IC50 (Rattus norvegicus, N27, 24 h): 43 nM

SMILES: CCC(C)Nc1ccc(-c2ccc(OC)cc2)nc1NC1CCCC1 (stereo not shown) [Compound H-86, N^2-cyclopentyl-6-(4-methoxyphenyl)-N^3-sec-butyl-pyridine-2,3-diamine]
- IC50 (Rattus norvegicus, N27, 24 h): 8 nM

SMILES: C(#Cc1nc2c(c(NC3CCCC3)n1)NCCC2)c1ccccc1 [Compound C-91, N-cyclopentyl-2-(2-phenylethynyl)-5,6,7,8-tetrahydropyrido[3,2-d]pyrimidin-4-amine]
- IC50 (Rattus norvegicus, N27, 24 h): 35 nM

Reference: patent US20220144826A1, “Heteroaromatic and Heterobicyclic Aromatic Derivatives for the Treatment of Ferroptosis-Related Disorders” (COLLABORATIVE MEDICINAL DEVELOPMENT, LLC, priority 2019, published 2022)
